Values joined by “and” are separate entries in the source; they are usually repeats but may differ in a detail not shown here. Identical values can stand only once. Values belong to the molecule of their own block, whether it stands above or below them.
How the values were obtained:
[1] = target: T1, tPA (Sus scrofa, UniProt Q8SQ23); test: Brain water content after fluid percussion brain injury (FPI) in piglets; format: in vivo, pigs; settings: peptide 1 mg/kg i.v. 30 min prior to FPI, no exogenous tPA, normal 78.87±0.75%, vehicle after injury 84.1±0.45%
T1 construct: purchased Genentech, Inc., South San Francisco, Calif
Description: (§1) Fluid Percussion Brain Injury (FPI) method. The method was performed as described by Armstead et al., Nat. Neurosci.
(§2) Brain water content Brain water content (BWC) was determined by measuring the wet and dry weights of the brain tissue and by using the formula BWC=wet weight-dry weight/wet weight×100. Data were analyzed by analysis of variants with a Student-Newman-Keuls post-hoc test. A P<0.05 was considered significant.
(§3) Brain water content (BWC) was determined by measuring the wet and dry weights of the brain tissue and by using the formula BWC=wet weight-dry weight/wet weight×100. Data were analyzed by analysis of variants with a Fischer's post-hoc test. A P<0.05 was considered significant.

[2] = tested on: tPA; test: as above; format: in vivo, pigs; settings: for Brain water content after FPI in the presence of tPA: tPA 2 mg/kg i.v. with peptide 1 mg/kg i.v.
Description: as §1, §2, §3

[3] = target: T2, tPA (Homo sapiens, UniProt P00750); format: in vivo; settings: rats
T2 construct: purchased Genentech, Inc., South San Francisco, Calif
Description: MCA occlusion. All studies were conducted in accordance with the NIH Guide for the Care and Use of Laboratory Animals. Sprague-Dawley rats (mean weight 250 g) were fed on regular chow and allowed free access to drinking water. Rats were anesthetized with an i.p. injection of ketamine (75 mg per ml, Apharmo) and xylazine (5 mg per ml, Bayer). Body temperature was maintained at 37±0.5° C. by means of a heating lamp. Focal cerebral ischemia was induced by occluding the left MCA with an intraluminal filament (Ding-Zhou, L. et al. 2002 Eur J. Pharmacol. 457, 137-146). Briefly, the left common and external carotid arteries were isolated through a midline neck incision and ligated with a 4-0 silk suture (Ethicon). An arteriotomy was fashioned in the common carotid artery just proximal to the carotid bifurcation. […] Twenty-four hours later. rats were euthanized with an overdose of Nembutal and the infarct size was measured.
Measuring infarct volume The brain was removed and sectioned coronally into 2-mm segments. […] The sections were photographed and the infarct area measured using the NIH computer image analysis program. […] Differences were analyzed by ANOVA followed by the t-test and the level of significance was corrected using a post-hoc analysis with the Bonferroni test. […]
The effect of the PAI-1 derived peptides on infarct size after transient mechanical obstruction of the MCA in rats treated with tPA was examined. tPA injected intravenously two hours after establishing reperfusion increased the infarct size from 16±4.6 to 48.333±8.7 mm3 (FIG. 2). […] The infarct size measured in the presence of peptide 206 was 20.333±4.8 while in the presence of peptide 218 N its size was only 13.3±3.6 mm3 (P<0.05; FIG. 2).
The effect of the PAI-1 derived peptides on infarct size was determined in rats that underwent MCA and reperfusion and four hours later treated with tPA alone or together with PAI-1 derived peptides. tPA injected intravenously four hours after establishing reperfusion increased the infarct size from 68±7 to 77±9 mm3 (FIG. 7).

[4] = target: T3, tPA (Rattus norvegicus, UniProt P19637); test: Infarct volume after embolic stroke in rats; format: in vivo; settings: peptide 1 mg per kg in saline, absence of tPA
T3 construct: purchased Genentech, Inc., South San Francisco, Calif
Description: (§4) Embolic stroke Embolic stroke was induced according to the previously reported microembolism model (Bdeir, K. et al. 2000 Blood 96, 1820-1826) as adapted to stroke (Atochin, D. N. et al. 2004. Stroke 35, 2177-2182). Microemboli were prepared, dissected, and homogenized as described (Bdeir K et al. 2000, supra). The suspension of microemboli used to induce stroke contained 1.4×10^6 microparticles, with an average diameter of 3 μm.
(§5) Experiments were performed in rats as described previously (Ding-Zhou, L. et al. 2002, supra) with some modifications. Briefly, Sprague-Dawley rats (mean weight 250 g) were anesthetized by i.p. injection of ketamine (75 mg per mL) and xylazine (5 mg per mL). The carotid artery was exposed and an arteriotomy was performed. A polyethylene catheter with an inner diameter of […] was used to inject the solution of microemboli (1.4×10^6 particles) directly into the exposed internal carotid artery. The catheter was flushed with 0.25 ml normal saline and carefully withdrawn. After washing the surgical site with saline containing 1 mM hexacapron, the incision was closed.
(§6) After induction of embolic stroke, rats were divided into 4 treatment groups (n=7 each): tPA (6 mg per kg) or tPA (6 mg per kg) with either peptide 206, peptide 218 O, or peptide 218 N (1 mg per kg) in normal saline were injected i.v., 2 hours after the catheter was withdrawn. Control groups received a vehicle consisting of normal saline alone or peptides 206 or 218 (1 mg per kg) in saline. 50% of the dose was given as a bolus injection and the remainder was infused over 60 min. The rats were returned to their cages after recovering from anesthesia. Twenty-four hours after the procedure, the rats were euthanized with an overdose of Nembutal and the infarct size was measured.
(§7) Measuring infarct volume The brain was removed and sectioned coronally into 2-mm segments. Brain slices were immersed in 2% 2,3,5-triphenyltetrazolium chloride (TTC) in saline, incubated for 30 minutes at 37° C. and placed in 4% formalin/PBS overnight. The area of infarction remains unstained, appearing white, making it clearly distinguishable from stained viable tissue. The sections were photographed and the infarct area measured using the NIH computer image analysis program. Infarct volume was defined as the sum of the unstained areas of all sections, multiplied by their thickness and expressed in cubic millimeters. Data are represented as mean±SE. Differences were analyzed by ANOVA followed by the t-test and the level of significance was corrected using a post-hoc analysis with the Bonferroni test. Statistical significance was set at P<0.05.
(§8) The effect of PAI-1 derived peptides on tPA treated rats after embolic stroke induced by injection of microthrombi directly into the MCA was also examined. […]

[5] = tested on: tPA; test: Infarct volume after embolic stroke in rats; format: in vivo
Description: as §4, §5, §6, §7, §8

[6] = target: T2, tPA; test: tPA-induced opening of the BBB in mice (Evans blue); format: in vivo; settings: C57/B16 mice, 10 mg/kg tPA with 10 μM peptide i.v.
From the text: The brain content of Evans blue was quantified by absorbance at 620 nm.

[7] = target: T2, tPA; test: tPA-related mortality and intracranial hemorrhage after transient mechanical obstruction of the MCA in rats; format: in vivo
Description: MCA occlusion. All studies were conducted in accordance with the NIH Guide for the Care and Use of Laboratory Animals. Sprague-Dawley rats (mean weight 250 g) were fed on regular chow and allowed free access to drinking water. Rats were anesthetized with an i.p. injection of ketamine (75 mg per ml, Apharmo) and xylazine (5 mg per ml, Bayer). Body temperature was maintained at 37±0.5° C. by means of a heating lamp. Focal cerebral ischemia was induced by occluding the left MCA with an intraluminal filament (Ding-Zhou, L. et al. 2002 Eur J. Pharmacol. 457, 137-146). Briefly, the left common and external carotid arteries were isolated through a midline neck incision and ligated with a 4-0 silk suture (Ethicon). An arteriotomy was fashioned in the common carotid artery just proximal to the carotid bifurcation. A 4-0 nylon monofilament (Ethicon) was introduced through this incision into the internal carotid artery and advanced distal to the carotid bifurcation to occlude the origin of the MCA; the thread was carefully withdrawn 2 hours later. tPA alone at the indicated concentrations, tPA together with the PAI-1 derived peptides 206 (EEIIMD of SEQ ID NO: 11) or peptide 218 N (Ac-RMAPEEIIMDRPFLFVVR-amide of SEQ ID NO: 1) or peptide 218 O (Ac-RMAPEEIIMDRPFLYVVR-amide of SEQ ID NO: 2) were injected i.v. 2 hours after the thread had been withdrawn. Rats were returned to their cages after recovering from anesthesia. Twenty-four hours later. rats were euthanized with an overdose of Nembutal and the infarct size was measured.

T2 sequence (P00750 36-562): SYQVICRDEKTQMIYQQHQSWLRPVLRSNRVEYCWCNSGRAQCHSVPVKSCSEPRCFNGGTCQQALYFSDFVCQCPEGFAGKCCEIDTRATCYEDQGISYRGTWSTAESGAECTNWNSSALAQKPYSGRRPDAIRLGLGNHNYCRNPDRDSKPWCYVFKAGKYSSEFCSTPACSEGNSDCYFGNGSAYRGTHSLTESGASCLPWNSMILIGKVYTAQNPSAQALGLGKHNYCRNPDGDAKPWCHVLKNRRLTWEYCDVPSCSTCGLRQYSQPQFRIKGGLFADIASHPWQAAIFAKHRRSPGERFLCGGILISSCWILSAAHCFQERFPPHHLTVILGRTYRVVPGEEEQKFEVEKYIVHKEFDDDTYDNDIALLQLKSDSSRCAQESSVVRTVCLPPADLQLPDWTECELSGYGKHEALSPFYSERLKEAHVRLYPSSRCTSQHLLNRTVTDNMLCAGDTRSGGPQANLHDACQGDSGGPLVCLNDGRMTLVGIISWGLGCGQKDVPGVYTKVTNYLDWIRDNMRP
T1 sequence (Q8SQ23 36-562): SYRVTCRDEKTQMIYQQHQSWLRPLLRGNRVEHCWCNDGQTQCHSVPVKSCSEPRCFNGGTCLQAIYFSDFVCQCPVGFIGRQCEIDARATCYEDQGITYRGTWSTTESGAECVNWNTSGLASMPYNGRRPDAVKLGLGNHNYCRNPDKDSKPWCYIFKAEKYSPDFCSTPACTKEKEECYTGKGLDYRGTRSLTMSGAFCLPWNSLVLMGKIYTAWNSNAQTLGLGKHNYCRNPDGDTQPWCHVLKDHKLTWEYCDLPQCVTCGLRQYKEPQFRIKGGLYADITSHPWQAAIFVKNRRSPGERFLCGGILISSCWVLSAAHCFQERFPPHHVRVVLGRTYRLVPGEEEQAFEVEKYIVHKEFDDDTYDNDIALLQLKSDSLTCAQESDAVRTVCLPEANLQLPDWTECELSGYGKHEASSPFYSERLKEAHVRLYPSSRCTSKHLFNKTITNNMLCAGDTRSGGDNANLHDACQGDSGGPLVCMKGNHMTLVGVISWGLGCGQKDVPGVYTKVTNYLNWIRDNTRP
T3 sequence (P19637 33-559): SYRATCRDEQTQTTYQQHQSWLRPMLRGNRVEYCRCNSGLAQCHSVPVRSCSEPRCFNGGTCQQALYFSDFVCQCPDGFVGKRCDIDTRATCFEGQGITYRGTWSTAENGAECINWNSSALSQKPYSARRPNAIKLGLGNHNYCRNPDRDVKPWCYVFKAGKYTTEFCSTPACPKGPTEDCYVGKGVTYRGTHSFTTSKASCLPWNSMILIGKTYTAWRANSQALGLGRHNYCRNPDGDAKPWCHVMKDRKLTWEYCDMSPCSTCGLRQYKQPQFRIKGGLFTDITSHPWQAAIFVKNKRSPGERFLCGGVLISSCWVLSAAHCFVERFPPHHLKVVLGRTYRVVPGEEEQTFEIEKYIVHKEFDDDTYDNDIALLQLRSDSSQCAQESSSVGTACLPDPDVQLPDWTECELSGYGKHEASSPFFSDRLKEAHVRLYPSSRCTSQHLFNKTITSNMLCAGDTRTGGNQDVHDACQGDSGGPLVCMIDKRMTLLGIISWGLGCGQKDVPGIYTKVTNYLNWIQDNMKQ

Molecule: CC[C@H](C)[C@H](NC(=O)[C@H](CCC(=O)O)NC(=O)[C@H](CCC(=O)O)NC(=O)[C@@H]1CCCN1C(=O)[C@H](C)NC(=O)[C@H](CCSC)NC(=O)[C@H](CCCNC(=N)N)NC(C)=O)C(=O)N[C@H](C(=O)N[C@@H](CCSC)C(=O)N[C@@H](CC(=O)O)C(=O)N[C@@H](CCCNC(=N)N)C(=O)N1CCC[C@H]1C(=O)N[C@@H](Cc1ccccc1)C(=O)N[C@@H](CC(C)C)C(=O)N[C@@H](Cc1ccccc1)C(=O)N[C@H](C(=O)N[C@H](C(=O)N[C@@H](CCCNC(=N)N)C(N)=O)C(C)C)C(C)C)[C@@H](C)CC [peptide 218 N, Ac-RMAPEEIIMDRPFLFVVR-amide]
- Brain water content after FPI [1]: 79.343±0.25%
- Brain water content after FPI in the presence of tPA [2]: 79.643±0.51%
- Infarct size, tPA with peptide four hours after reperfusion (FIG. 7) ([3]; MCA and reperfusion, tPA co-injected with peptide four hours later): significantly stronger than that of 218 O and 206
- Post-stroke infarct size, peptide alone [4]: significantly reduced post-stroke infarct size
- Infarct volume, tPA with peptide ([5]; tPA 6 mg per kg with peptide 1 mg per kg i.v. two hours after embolization): smaller infarct volumes than those treated with tPA and peptide 206 or tPA and peptide 218 O
- Prevention of tPA-induced loss of BBB integrity [6]: about 90%
- Absolute mortality, tPA co-injected with peptide (FIG. 6A) ([7]; mechanical MCA obstruction, tPA alone 28.6%): 15.4%
- Reduction of the tPA associated increase in mortality (FIG. 6B) ([7]; mechanical MCA obstruction, tPA with peptide): 63%
- tPA-induced mortality with peptide, in per cent from Table 1 ([7]; tPA plus peptide, tPA alone ~29%): 9%

- Post-stroke infarct size, peptide alone [4]: little effect on infarct size
- Prevention of tPA-induced loss of BBB integrity [6]: no effect
Molecule: EEIIMD [peptide 206, 6-mer peptide corresponding to amino acid residues 373-378 of human PAI-1]
- Brain water content after FPI [1]: 81.379±0.3%
- Brain water content after FPI in the presence of tPA [2]: 82.351±0.55%

Molecule: tPA: Recombinant tPA purchased from Genentech; thrombolytic agent, tissue-type plasminogen activator
- Brain water content after FPI, tPA alone ([2]; tPA 2 mg/kg i.v. without peptide): 87.12±0.6%
- Infarct size, tPA alone four hours after reperfusion ([3]; MCA and reperfusion, tPA i.v. four hours later, control 68±7): 77±9 mm3
- Infarct size, tPA alone ([3]; mechanical MCA obstruction, tPA i.v. two hours after reperfusion, saline control 16±4.6): 48.333±8.7 mm3
- Decrease of infarct volume by tPA alone ([5]; tPA 6 mg per kg i.v. two hours after embolization): approximately 48%
- Mortality, tPA alone, in per cent from Table 1 ([7]; 6 out of 21): ~29%
- Mortality (dead rats/rats in group) ([7]; Table 1, control 1/12): 6 out of 21 and 6/21
- Mortality rate, tPA alone (FIG. 6) ([7]; mechanical MCA obstruction, tPA i.v. two hours after reperfusion, saline control 7.7%): 28.6%
